Experimental data as given in ChEMBL document CHEMBL1240307, “A functional genomics approach to the mode of action of apratoxin A” (Nat Chem Biol, 2006).

Legend:
NCI-H322M = test: Cytotoxicity against human NCI-H322M cells by sulforhodamine B assay; format: functional
NCI-H522 = test: Cytotoxicity against human NCI-H522 cells by sulforhodamine B assay; format: functional
SW-620 = test: Cytotoxicity against human SW620 cells by sulforhodamine B assay; format: functional
SF-268 = test: Cytotoxicity against human SF268 cells by sulforhodamine B assay; format: functional
SF-539 = test: Cytotoxicity against human SF539 cells by sulforhodamine B assay; format: functional
LOX IMVI = test: Cytotoxicity against human LOXIMVI cells by sulforhodamine B assay; format: functional
UACC-257 = test: Cytotoxicity against human UACC257 cells by sulforhodamine B assay; format: functional
UACC-62 = test: Cytotoxicity against human UACC62 cells by sulforhodamine B assay; format: functional
OVCAR-3 = test: Cytotoxicity against human OVCAR-3 cells by sulforhodamine B assay; format: functional
ACHN = test: Cytotoxicity against human ACHN cells by sulforhodamine B assay; format: functional
CAKI-1 = test: Cytotoxicity against human Caki1 cells by sulforhodamine B assay; format: functional
TK-10 = test: Cytotoxicity against human TK10 cells by sulforhodamine B assay; format: functional
PC-3 = test: Cytotoxicity against human PC3 cells by sulforhodamine B assay; format: functional
HT-29 [1] = test: Antitumor activity against human HT-29 cells assessed as upregulation of RASSF4 mRNA expression at 10 nM after 12 hrs relative to control; format: functional
HT-29 [2] = test: Antitumor activity against human HT-29 cells assessed as upregulation of HSPA1A mRNA expression at 2 nM after 6 hrs relative to control; format: functional
HT-29 [3] = test: Antitumor activity against human HT-29 cells assessed as upregulation of HSPA1A mRNA expression at 10 nM after 6 hrs relative to control; format: functional
HT-29 [4] = test: Antitumor activity against human HT-29 cells assessed as upregulation of HSPA1A mRNA expression at 10 nM after 12 hrs relative to control; format: functional
HT-29 [5] = test: Antitumor activity against human HT-29 cells assessed as down-regulation of RAB11B mRNA expression at 10 nM after 12 hrs relative to control; format: functional
HT-29 [6] = test: Antitumor activity against human HT-29 cells assessed as down-regulation of TAL1 mRNA expression at 2 nM after 6 hrs relative to control; format: functional
HT-29 [7] = test: Antitumor activity against human HT-29 cells assessed as down-regulation of TAL1 mRNA expression at 10 nM after 6 hrs relative to control; format: functional
HT-29 [8] = test: Antitumor activity against human HT-29 cells assessed as down-regulation of CCNE2 mRNA expression at 2 nM after 3 hrs relative to control; format: functional
HT-29 [9] = test: Antitumor activity against human HT-29 cells assessed as down-regulation of CCNE2 mRNA expression at 2 nM after 6 hrs relative to control; format: functional
HT-29 [10] = test: Antitumor activity against human HT-29 cells assessed as down-regulation of GTSE1 mRNA expression at 2 nM after 3 hrs relative to control; format: functional
HT-29 [11] = test: Antitumor activity against human HT-29 cells assessed as down-regulation of GTSE1 mRNA expression at 10 nM after 3 hrs relative to control; format: functional
HT-29 [12] = test: Antitumor activity against human HT-29 cells assessed as upregulation of KCNK10 mRNA expression at 2 nM after 12 hrs relative to control; format: functional
HT-29 [13] = test: Antitumor activity against human HT-29 cells assessed as upregulation of MGC4504 mRNA expression at 2 nM after 12 hrs relative to control; format: functional
U2OS [14] = test: Cell cycle arrest in human U2OS cells assessed as accumulation at G1 phase at 5 nM after 48 hrs by FACS analysis (reference value: 49.8%); format: functional
U2OS [15] = test: Cell cycle arrest in human U2OS cells assessed as accumulation at S phase at 50 nM after 48 hrs by FACS analysis (reference value: 37.3%); format: functional
U2OS [16] = test: Induction of apoptosis in human U2OS cells assessed as caspase3 dependent cleavage of Ac-DEVD-pNA at 50 nM after 6-48 hrs by […] relative to control; format: functional
[17] = Cytotoxicity against resting human CD4+ T cell assessed as cell viability after 3 days by fluorescence detection method; format: cell-based; conditions: 72 h
U2OS [18] = test: Cell cycle arrest in human U2OS cells overexpressing mouse Fgfr1 assessed as accumulation at S phase at 15 nM after 48 hrs by CMV-GFP reporter assay method (reference value: 33%); format: functional
[19] = read-out: LC50 (the source's name)

Which results are given for `CC[C@H](C)[C@H]1C(=O)N2CCC[C@H]2C(=O)O[C@H](C(C)(C)C)C[C@@H](C)C[C@H](O)[C@H](C)C2=N[C@@H](/C=C(\C)C(=O)N[C@@H](Cc3ccc(OC)cc3)C(=O)N(C)[C@@H](C)C(=O)N1C)CS2` [APRATOXIN A]?
GI50 (NCI-H322M): 3.99 nM; GI50 (NCI-H522): 6.03 nM; GI50 (SW-620): 3.16 nM; GI50 (SF-268): 50.8 nM; GI50 (SF-539): 0.503 nM; CC50 (SF-539; [19]): 69.4 nM; GI50 (LOX IMVI): 2.3 nM; CC50 (LOX IMVI; [19]): 23.2 nM; GI50 (UACC-257): 7.15 nM; GI50 (UACC-62): 3.28 nM; GI50 (OVCAR-3): 16.9 nM; GI50 (ACHN): 2.69 nM; GI50 (CAKI-1): 4.05 nM; GI50 (TK-10): 2.63 nM; GI50 (PC-3): 4.96 nM; fold change (FC) (HT-29 [1]): <=2; fold change (FC) (HT-29 [2]): 2.56; fold change (FC) (HT-29 [3]): 2.68; fold change (FC) (HT-29 [4]): <=2; fold change (FC) (HT-29 [5]): <=2; fold change (FC) (HT-29 [6]): <=2; fold change (FC) (HT-29 [7]): <=2; fold change (FC) (HT-29 [8]): <=2; fold change (FC) (HT-29 [9]): <=2; fold change (FC) (HT-29 [10]): <=2; fold change (FC) (HT-29 [11]): <=2; fold change (FC) (HT-29 [12]): <=2; fold change (FC) (HT-29 [13]): 5.19; inhibition at 0.005 µM (U2OS [14]): 82.1%; inhibition at 0.05 µM (U2OS [15]): 0.8%; fold change (FC) (U2OS [16]): 20; IC50 [17]: 1800 nM; inhibition at 0.015 µM (U2OS [18]): 28%
